These results are taken from PubChem BioAssay (NCI).

Some test systems named below: NCI-H522 lung; M14 melanoma; SF-539 CNS; HT29 colon; OVCAR-5 ovarian; T-47D breast; MALME-3M melanoma; RPMI-8226 leukemia; HCT-116 colon; SW-620 colon.
Holding throughout (assay): NCI-60 cell line screen, 48 h

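Method: 48-hour compound exposure of cells in 96-well plates, five concentrations, linear interpolation of endpoints. GI50 marks 50% less growth. Definition used: TGI = concentration required for complete inhibition of growth.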 Some results are limits rather than exact numbers.

`O=C1c2ccccc2C(=O)N1c1ccc(Cc2ccc(N3C(=O)c4ccccc4C3=O)cc2)cc1`: the TGI in the experiment with NCI-H522 lung, in the experiment on M14 melanoma, in the experiment with SF-539 CNS, with HT29 colon, with OVCAR-5 ovarian and in the experiment on T-47D breast was > 100 µM in each case. The TGI with MALME-3M melanoma, in the experiment with RPMI-8226 leukemia, in the experiment with HCT-116 colon and in the experiment on SW-620 colon was > 100 µM each time.

Take `O=C(O)CCCN1C(=O)/C(=C/C(Cl)=C/c2ccccc2)SC1=S`: the GI50 in the experiment on NCI-H522 lung was 2.21 µM; in the experiment with M14 melanoma, 1.81 µM; in the experiment on SF-539 CNS it was 1.98 µM; with HT29 colon, 2.85 µM; in the experiment with OVCAR-5 ovarian it was 2.48 µM; with T-47D breast, 1.89 µM. Besides, the GI50 in the experiment on MALME-3M melanoma is 2.09 µM; with HCT-116 colon, 1.13 µM; with SW-620 colon, 1.3 µM. The TGI in the experiment on NCI-H522 lung amounted to 6.62 µM; with M14 melanoma, 5.12 µM; in the experiment on SF-539 CNS it was 4.85 µM; in the experiment with HT29 colon, 10.6 µM; with OVCAR-5 ovarian, 5.78 µM; with T-47D breast, 5.38 µM. In addition, the TGI was found to be 5.24 µM with MALME-3M melanoma, 4 µM in the experiment on HCT-116 colon and 3.86 µM in the experiment on SW-620 colon.

As to `COc1ccc(-n2cc(-c3cc(OC)c(OC)c(OC)c3)nc2SCc2cccc(C#N)c2)cc1OC`, the GI50 was 90 µM with NCI-H522 lung; > 100 µM in the experiment on M14 melanoma; 90.3 µM with SF-539 CNS; 14.1 µM in the experiment on HT29 colon; > 100 µM in the experiment with OVCAR-5 ovarian; > 100 µM in the experiment on T-47D breast. Also, the GI50 with MALME-3M melanoma is > 100 µM; in the experiment on RPMI-8226 leukemia, > 100 µM; in the experiment with HCT-116 colon it was 46 µM; in the experiment on SW-620 colon it was 34 µM. The TGI in the experiment with NCI-H522 lung, in the experiment with M14 melanoma, in the experiment on SF-539 CNS, in the experiment on HT29 colon, with OVCAR-5 ovarian and with T-47D breast was > 100 µM in each case. For the same compound, the TGI in the experiment on MALME-3M melanoma, in the experiment with RPMI-8226 leukemia, in the experiment on HCT-116 colon and in the experiment on SW-620 colon was > 100 µM throughout.

On to `CCN(Cc1ccc(Cl)c(Cl)c1)c1ccc2nc(N)nc(N)c2c1C`, for which the GI50 is 0.0378 µM with NCI-H522 lung; < 0.01 µM with M14 melanoma; 0.0695 µM in the experiment with SF-539 CNS; < 0.01 µM with HT29 colon; 0.209 µM with OVCAR-5 ovarian; 0.67 µM with T-47D breast. Moreover, the GI50 in the experiment with MALME-3M melanoma is 1.17 µM; with RPMI-8226 leukemia, 0.0968 µM; with HCT-116 colon it was < 0.01 µM; in the experiment on SW-620 colon it was < 0.01 µM. The TGI in the experiment on NCI-H522 lung was found to be 1.82 µM; in the experiment with M14 melanoma, 1.63 µM; in the experiment with SF-539 CNS it was 1.48 µM; with HT29 colon it was 1.27 µM; with OVCAR-5 ovarian, 2.13 µM; with T-47D breast, 2.71 µM. For the same compound, the TGI was 2.6 µM in the experiment on MALME-3M melanoma, 2.83 µM in the experiment on RPMI-8226 leukemia, 1.51 µM in the experiment with HCT-116 colon and 1.6 µM in the experiment on SW-620 colon.

`O=C(CSSCC(=O)c1ccc(Cl)cc1)c1ccc(Cl)cc1`: the GI50 was 3.56 µM with NCI-H522 lung; 5.59 µM in the experiment on M14 melanoma; 7.36 µM in the experiment on SF-539 CNS; 3.42 µM in the experiment with HT29 colon; 5.83 µM in the experiment with OVCAR-5 ovarian; 8.66 µM in the experiment on T-47D breast. In addition, the GI50 in the experiment with MALME-3M melanoma was 3.19 µM; in the experiment on RPMI-8226 leukemia, 3.2 µM; with HCT-116 colon, 3.79 µM; with SW-620 colon, 4.13 µM. The TGI in the experiment on NCI-H522 lung came out at 15.3 µM; in the experiment with M14 melanoma, 22.1 µM; with SF-539 CNS, 23.8 µM; with HT29 colon, 17 µM; with OVCAR-5 ovarian it was 21.5 µM; in the experiment with T-47D breast it was 45.2 µM. Moreover, the TGI worked out at 17 µM in the experiment on MALME-3M melanoma, 12.3 µM in the experiment on RPMI-8226 leukemia, 14.8 µM in the experiment with HCT-116 colon and 23.6 µM in the experiment on SW-620 colon.

In the case of `O=C(O)/C=C/c1c2ccc(=O)c(O)c-2oc2c(O)c(O)ccc12`, the TGI in the experiment on NCI-H522 lung, in the experiment with M14 melanoma, in the experiment on HT29 colon, in the experiment on OVCAR-5 ovarian, with T-47D breast and with MALME-3M melanoma was > 100 µM each time. Besides, the TGI was 55.9 µM in the experiment with RPMI-8226 leukemia, 40 µM with HCT-116 colon and 49.6 µM in the experiment on SW-620 colon.

As to `COc1ccc(Cn2cc3c(c2-c2ccccc2)CCc2cnoc2-3)cc1`, the GI50 in the experiment on NCI-H522 lung was 0.0327 µM; with M14 melanoma, 0.155 µM; with SF-539 CNS it was 0.149 µM; in the experiment with HT29 colon, 0.0797 µM; with OVCAR-5 ovarian it was 0.505 µM; with T-47D breast it was 1.32 µM. Also, the GI50 in the experiment on RPMI-8226 leukemia was 0.167 µM; in the experiment on HCT-116 colon, 0.0904 µM; in the experiment on SW-620 colon it was 0.113 µM. The TGI in the experiment on NCI-H522 lung was 1.15 µM; with M14 melanoma, > 100 µM; in the experiment with SF-539 CNS it was 0.49 µM; in the experiment on HT29 colon, 1.58 µM; in the experiment on OVCAR-5 ovarian it was > 100 µM; in the experiment with T-47D breast, > 100 µM. Moreover, the TGI is 0.501 µM in the experiment with RPMI-8226 leukemia and > 100 µM in the experiment with SW-620 colon.

Turning to `CC(C)(C)OC(=O)NCCCCCCCCCn1c2c(c3ccccc3c1=O)C(=O)c1ccccc1-2`, the GI50 in the experiment with NCI-H522 lung is 44.9 µM; with M14 melanoma, > 100 µM; in the experiment with SF-539 CNS it was 18 µM; in the experiment with HT29 colon, > 100 µM; in the experiment on OVCAR-5 ovarian, > 100 µM; with T-47D breast it was 78.9 µM. Further, the GI50 in the experiment on MALME-3M melanoma was 13.9 µM; in the experiment with RPMI-8226 leukemia it was > 100 µM; in the experiment on SW-620 colon, > 100 µM. Also, the TGI is > 100 µM in the experiment with NCI-H522 lung; > 100 µM in the experiment with M14 melanoma; 52.8 µM in the experiment with SF-539 CNS; > 100 µM with HT29 colon; > 100 µM with OVCAR-5 ovarian; > 100 µM with T-47D breast. Further, the TGI was 43 µM in the experiment on MALME-3M melanoma, > 100 µM with RPMI-8226 leukemia and > 100 µM in the experiment with SW-620 colon.

In the case of `COc1ccc(-c2nc(NC(=O)CS(=O)(=O)c3ccc(F)cc3)sc2C)cc1`, the GI50 in the experiment on M14 melanoma was 19.1 µM; in the experiment on SF-539 CNS it was 16.9 µM; with HT29 colon, 11 µM; in the experiment on OVCAR-5 ovarian, 36 µM; in the experiment with T-47D breast, 21.7 µM; in the experiment on MALME-3M melanoma, 23 µM. The values for the GI50 in the experiment on RPMI-8226 leukemia, in the experiment with HCT-116 colon and in the experiment on SW-620 colon were 17.6 µM, 17.5 µM and 13.7 µM, respectively. Besides, the TGI with M14 melanoma is 55.7 µM; with SF-539 CNS, 37.2 µM; in the experiment on HT29 colon, 39.4 µM; with OVCAR-5 ovarian it was > 100 µM; in the experiment on T-47D breast it was 80.6 µM; in the experiment on MALME-3M melanoma it was 66.4 µM. Also, the TGI with RPMI-8226 leukemia was 56.5 µM; with HCT-116 colon it was 38.7 µM; in the experiment with SW-620 colon, > 100 µM.

Take `CC(C)(C)OC(=O)N(CCCCN(CCCn1c2c(c3ccccc3c1=O)C(=O)c1ccccc1-2)C(=O)OC(C)(C)C)CCCn1c2c(c3ccccc3c1=O)C(=O)c1ccccc1-2`: the GI50 in the experiment on NCI-H522 lung was 26.2 µM; in the experiment on M14 melanoma, 31.3 µM; in the experiment with SF-539 CNS it was 8.79 µM; with HT29 colon, 54.6 µM; in the experiment with T-47D breast, > 100 µM; in the experiment on MALME-3M melanoma, > 100 µM. Moreover, the GI50 in the experiment with RPMI-8226 leukemia is 17.9 µM; with HCT-116 colon, 1.9 µM; in the experiment on SW-620 colon, 32.3 µM. The TGI was > 100 µM in the experiment with NCI-H522 lung; > 100 µM in the experiment with M14 melanoma; 33.1 µM in the experiment on SF-539 CNS; > 100 µM in the experiment on HT29 colon; > 100 µM with T-47D breast; > 100 µM with MALME-3M melanoma. The TGI with RPMI-8226 leukemia was 69.1 µM; with HCT-116 colon it was > 100 µM; in the experiment with SW-620 colon, > 100 µM.

Turning to `O=NNc1ccc(-c2ccccc2)cn1`, the TGI with NCI-H522 lung was 49.3 µM; in the experiment on M14 melanoma, 39.2 µM; in the experiment with SF-539 CNS, 80.8 µM; in the experiment with HT29 colon, 99.6 µM; with OVCAR-5 ovarian, > 77.4 µM; with T-47D breast it was > 77.9 µM. The TGI is 49.8 µM in the experiment with MALME-3M melanoma, 29.9 µM in the experiment on HCT-116 colon and > 77 µM with SW-620 colon.

In the case of `O=C1OC(C(O)CO)C(C(O)CO)OC1=O` (stereo unspecified), the TGI in the experiment on M14 melanoma, with SF-539 CNS, in the experiment with HT29 colon, in the experiment on OVCAR-5 ovarian, in the experiment with T-47D breast and with MALME-3M melanoma was > 10 µM throughout. Also, the TGI in the experiment on RPMI-8226 leukemia and in the experiment on SW-620 colon was > 10 µM each time.

For the compound `COC(=O)NC1(NC(=O)OC)NC(=O)c2ccccc2N1`, the TGI in the experiment on NCI-H522 lung, in the experiment with M14 melanoma, in the experiment on SF-539 CNS, in the experiment on HT29 colon, with OVCAR-5 ovarian and in the experiment on T-47D breast was > 100 µM each time. In addition, the TGI with MALME-3M melanoma, in the experiment on HCT-116 colon and with SW-620 colon was > 100 µM each time.

With `C=C1C(=O)OC2CC1C(OC(=O)/C=C/c1ccccc1)C/C(C)=C/CC/C(C)=C/CCC2(C)O` (stereo unspecified), the TGI with NCI-H522 lung turned out to be 1.63 µM; in the experiment with M14 melanoma it was 3.14 µM; in the experiment on SF-539 CNS, 2.83 µM; with HT29 colon, 2.99 µM; in the experiment on OVCAR-5 ovarian, 3.19 µM; in the experiment with T-47D breast, 18.4 µM. In addition, the TGI with MALME-3M melanoma turned out to be 4.02 µM; in the experiment with HCT-116 colon, 2.38 µM.

`Cc1[nH]n(-c2nc(-c3ccccc3)cc(=O)[nH]2)c(=O)c1CCO`: the TGI with M14 melanoma, with SF-539 CNS, in the experiment with HT29 colon, with OVCAR-5 ovarian, in the experiment on T-47D breast and with MALME-3M melanoma was > 100 µM each time. The TGI in the experiment on RPMI-8226 leukemia, in the experiment on HCT-116 colon and in the experiment on SW-620 colon was > 100 µM throughout.
